{
  "source": "patent US10844077B2",
  "about": "“Thiazolyl-containing compounds for treating proliferative diseases” (Dana-Farber Cancer Institute, Inc., priority 2014, dated 2020)",
  "assay_in_all_cases": "KINATIV assay",
  "format_in_all_cases": "cell-based",
  "conditions_in_all_cases": "1 μM, 90 minutes, BCWM.1 cells",
  "key": {"MSK1, MSK2 domain1": {"system": "MSK1, MSK2 domain1", "summary_of_the_method": "(§1)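 Quantitation by ACTIVX of probe-bound kinases from cell lysates labeled directly with ATP-biotin; compounds run in duplicate, controls in duplicate or quadruplicate.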"}, "Wnk1, Wnk2": {"system": "Wnk1, Wnk2", "summary_of_the_method": "as §1"}, "CDK4": {"molecular_target": "CDK4 (Homo sapiens (Human), UniProt P11802)", "summary_of_the_method": "as §1"}, "PKD1, PKD2": {"system": "PKD1, PKD2", "summary_of_the_method": "as §1"}, "MAP3K1": {"molecular_target": "MAP3K1 (Homo sapiens (Human), UniProt Q13233)", "summary_of_the_method": "as §1"}, "PI4KA, PI4KAP2": {"system": "PI4KA, PI4KAP2", "summary_of_the_method": "as §1"}, "SRC": {"molecular_target": "SRC (Homo sapiens (Human), UniProt P12931)", "summary_of_the_method": "as §1"}, "MSK2 domain1": {"molecular_target": "MSK2 domain1 (Homo sapiens (Human), UniProt O75676)", "summary_of_the_method": "as §1"}, "ULK1": {"molecular_target": "ULK1 (Homo sapiens (Human), UniProt O75385)", "summary_of_the_method": "as §1"}, "AKT1": {"molecular_target": "AKT1 (Homo sapiens (Human), UniProt P31749)", "summary_of_the_method": "as §1"}, "Wnk1, Wnk2, Wnk3": {"system": "Wnk1, Wnk2, Wnk3", "summary_of_the_method": "as §1"}, "CaMK4": {"molecular_target": "CaMK4 (Homo sapiens (Human), UniProt Q16566)", "summary_of_the_method": "as §1"}, "MST4": {"molecular_target": "MST4 (Homo sapiens (Human), UniProt Q9P289)", "summary_of_the_method": "as §1"}, "MAP3K15, MAP3K5, MAP3K6": {"system": "MAP3K15, MAP3K5, MAP3K6", "summary_of_the_method": "as §1"}, "PIK3C2B": {"molecular_target": "PIK3C2B (Homo sapiens (Human), UniProt O00750)", "summary_of_the_method": "as §1"}, "ACK": {"molecular_target": "ACK (Homo sapiens (Human), UniProt Q07912)", "sequence (Q07912 whole entry)": "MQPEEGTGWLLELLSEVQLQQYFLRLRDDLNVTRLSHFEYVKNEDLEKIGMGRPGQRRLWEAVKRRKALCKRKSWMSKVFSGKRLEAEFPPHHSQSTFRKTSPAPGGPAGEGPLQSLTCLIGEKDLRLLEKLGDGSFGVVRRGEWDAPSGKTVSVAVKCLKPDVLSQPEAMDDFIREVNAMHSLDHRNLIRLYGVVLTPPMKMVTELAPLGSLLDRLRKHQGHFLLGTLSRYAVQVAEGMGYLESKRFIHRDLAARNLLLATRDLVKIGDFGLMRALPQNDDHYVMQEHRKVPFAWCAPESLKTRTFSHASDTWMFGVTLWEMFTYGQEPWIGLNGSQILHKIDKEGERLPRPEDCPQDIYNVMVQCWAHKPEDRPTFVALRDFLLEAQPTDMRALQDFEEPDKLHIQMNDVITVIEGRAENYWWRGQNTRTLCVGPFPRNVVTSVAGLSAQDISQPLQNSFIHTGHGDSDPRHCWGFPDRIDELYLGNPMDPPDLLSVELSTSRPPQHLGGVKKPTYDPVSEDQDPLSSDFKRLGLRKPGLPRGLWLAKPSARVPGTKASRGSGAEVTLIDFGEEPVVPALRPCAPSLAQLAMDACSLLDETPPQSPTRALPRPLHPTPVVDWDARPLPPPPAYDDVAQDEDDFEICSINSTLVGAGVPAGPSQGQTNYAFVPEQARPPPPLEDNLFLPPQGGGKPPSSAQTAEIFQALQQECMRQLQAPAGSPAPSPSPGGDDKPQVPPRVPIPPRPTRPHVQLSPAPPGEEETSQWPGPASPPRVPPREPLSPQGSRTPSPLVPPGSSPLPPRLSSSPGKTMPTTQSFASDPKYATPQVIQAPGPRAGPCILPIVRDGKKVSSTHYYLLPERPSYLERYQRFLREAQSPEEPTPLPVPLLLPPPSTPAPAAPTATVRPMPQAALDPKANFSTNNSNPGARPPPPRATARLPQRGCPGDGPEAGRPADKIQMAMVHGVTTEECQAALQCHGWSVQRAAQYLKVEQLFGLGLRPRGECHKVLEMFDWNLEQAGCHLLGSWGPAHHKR", "summary_of_the_method": "as §1"}, "IKKe, TBK1": {"system": "IKKe, TBK1", "summary_of_the_method": "as §1"}, "MASTL": {"molecular_target": "MASTL (Homo sapiens (Human), UniProt Q96GX5)", "sequence (Q96GX5 whole entry)": "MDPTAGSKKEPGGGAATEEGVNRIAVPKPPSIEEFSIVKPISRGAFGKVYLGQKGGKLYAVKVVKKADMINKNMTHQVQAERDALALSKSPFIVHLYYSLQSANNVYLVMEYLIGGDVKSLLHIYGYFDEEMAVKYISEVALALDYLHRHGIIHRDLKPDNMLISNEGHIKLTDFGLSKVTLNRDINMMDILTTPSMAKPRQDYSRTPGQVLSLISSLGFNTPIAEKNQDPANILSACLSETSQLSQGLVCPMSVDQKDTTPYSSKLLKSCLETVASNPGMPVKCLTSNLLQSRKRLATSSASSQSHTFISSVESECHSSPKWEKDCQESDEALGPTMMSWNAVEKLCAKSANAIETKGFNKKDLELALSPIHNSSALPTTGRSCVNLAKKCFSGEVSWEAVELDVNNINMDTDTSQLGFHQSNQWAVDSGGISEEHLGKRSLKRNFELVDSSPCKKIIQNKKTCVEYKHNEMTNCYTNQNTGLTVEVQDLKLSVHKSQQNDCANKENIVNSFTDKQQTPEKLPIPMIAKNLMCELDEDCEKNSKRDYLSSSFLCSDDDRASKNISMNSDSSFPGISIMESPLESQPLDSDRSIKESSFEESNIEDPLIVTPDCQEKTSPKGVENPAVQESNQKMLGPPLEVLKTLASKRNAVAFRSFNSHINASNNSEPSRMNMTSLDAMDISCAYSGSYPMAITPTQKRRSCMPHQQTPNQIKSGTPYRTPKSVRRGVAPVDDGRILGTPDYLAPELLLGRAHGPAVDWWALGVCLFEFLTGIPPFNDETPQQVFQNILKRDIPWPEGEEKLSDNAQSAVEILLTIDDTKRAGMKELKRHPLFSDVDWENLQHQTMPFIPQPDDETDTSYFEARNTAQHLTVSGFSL", "summary_of_the_method": "as §1"}, "SNRK": {"molecular_target": "SNRK (Homo sapiens (Human), UniProt Q9NRH2)", "sequence (Q9NRH2 whole entry)": "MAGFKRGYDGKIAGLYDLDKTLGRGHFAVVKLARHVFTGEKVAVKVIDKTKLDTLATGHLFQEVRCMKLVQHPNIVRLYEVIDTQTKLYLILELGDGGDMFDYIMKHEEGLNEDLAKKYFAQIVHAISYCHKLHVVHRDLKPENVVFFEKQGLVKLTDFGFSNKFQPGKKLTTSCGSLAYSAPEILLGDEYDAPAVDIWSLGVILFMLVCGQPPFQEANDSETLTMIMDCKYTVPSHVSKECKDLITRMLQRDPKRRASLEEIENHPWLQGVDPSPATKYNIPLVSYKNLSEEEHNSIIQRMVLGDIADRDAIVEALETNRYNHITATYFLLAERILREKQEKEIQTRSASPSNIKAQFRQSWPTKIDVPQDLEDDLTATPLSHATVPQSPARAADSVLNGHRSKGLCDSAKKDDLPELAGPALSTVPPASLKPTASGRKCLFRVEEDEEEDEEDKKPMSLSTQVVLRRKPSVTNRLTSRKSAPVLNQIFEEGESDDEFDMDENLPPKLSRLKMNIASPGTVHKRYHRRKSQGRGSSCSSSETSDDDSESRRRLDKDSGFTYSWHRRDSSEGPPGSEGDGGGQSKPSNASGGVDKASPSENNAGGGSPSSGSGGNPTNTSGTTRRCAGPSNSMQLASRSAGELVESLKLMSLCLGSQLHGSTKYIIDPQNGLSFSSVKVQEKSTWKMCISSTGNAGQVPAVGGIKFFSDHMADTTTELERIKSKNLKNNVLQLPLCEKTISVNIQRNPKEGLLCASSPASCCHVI", "summary_of_the_method": "as §1"}, "Erk1": {"molecular_target": "Erk1 (Homo sapiens (Human), UniProt P27361)", "summary_of_the_method": "as §1"}, "MAP3K5": {"molecular_target": "MAP3K5 (Homo sapiens (Human), UniProt Q99683)", "summary_of_the_method": "as §1"}, "MLKL": {"molecular_target": "MLKL (Homo sapiens (Human), UniProt Q8NB16)", "summary_of_the_method": "as §1"}, "ILK": {"molecular_target": "ILK (Homo sapiens (Human), UniProt Q13418)", "sequence (Q13418 whole entry)": "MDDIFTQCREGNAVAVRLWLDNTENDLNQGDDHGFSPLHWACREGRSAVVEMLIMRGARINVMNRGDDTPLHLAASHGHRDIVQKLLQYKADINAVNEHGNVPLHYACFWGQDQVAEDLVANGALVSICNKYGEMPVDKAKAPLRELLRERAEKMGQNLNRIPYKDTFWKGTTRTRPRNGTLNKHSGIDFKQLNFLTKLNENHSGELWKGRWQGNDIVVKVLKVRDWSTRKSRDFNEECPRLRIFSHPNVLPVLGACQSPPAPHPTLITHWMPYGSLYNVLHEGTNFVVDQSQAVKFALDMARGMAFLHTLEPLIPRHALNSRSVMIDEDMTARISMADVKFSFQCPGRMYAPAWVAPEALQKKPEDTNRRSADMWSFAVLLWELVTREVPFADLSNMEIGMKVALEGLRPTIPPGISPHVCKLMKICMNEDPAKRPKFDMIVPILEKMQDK", "summary_of_the_method": "as §1"}, "TAO2": {"molecular_target": "TAO2 (Homo sapiens (Human), UniProt Q9UL54)", "summary_of_the_method": "as §1"}, "p38d, p38g": {"system": "p38d, p38g", "summary_of_the_method": "as §1"}, "[1]": {"system": "CaMK2a, CaMK2b, CaMK2d, CaMK2g", "summary_of_the_method": "as §1"}, "ROCK1": {"molecular_target": "ROCK1 (Homo sapiens (Human), UniProt Q13464)", "summary_of_the_method": "as §1"}, "JAK1": {"molecular_target": "JAK1 (Homo sapiens (Human), UniProt P23458)", "summary_of_the_method": "as §1"}, "NEK2": {"molecular_target": "NEK2 (Homo sapiens (Human), UniProt P51955)", "summary_of_the_method": "as §1"}, "[2]": {"system": "ZC1/HGK, ZC2/TNIK, ZC3/MINK", "summary_of_the_method": "as §1"}, "RSKL1": {"molecular_target": "RSKL1 (Homo sapiens (Human), UniProt Q96S38)", "summary_of_the_method": "as §1"}, "PKN1": {"molecular_target": "PKN1 (Homo sapiens (Human), UniProt Q16512)", "summary_of_the_method": "as §1"}, "PIK3CD": {"molecular_target": "PIK3CD (Homo sapiens (Human), UniProt O00329)", "summary_of_the_method": "as §1"}, "CDK11, CDK8": {"system": "CDK11, CDK8", "summary_of_the_method": "as §1"}, "LKB1": {"molecular_target": "LKB1 (Homo sapiens (Human), UniProt Q15831)", "sequence (Q15831 1-430)": "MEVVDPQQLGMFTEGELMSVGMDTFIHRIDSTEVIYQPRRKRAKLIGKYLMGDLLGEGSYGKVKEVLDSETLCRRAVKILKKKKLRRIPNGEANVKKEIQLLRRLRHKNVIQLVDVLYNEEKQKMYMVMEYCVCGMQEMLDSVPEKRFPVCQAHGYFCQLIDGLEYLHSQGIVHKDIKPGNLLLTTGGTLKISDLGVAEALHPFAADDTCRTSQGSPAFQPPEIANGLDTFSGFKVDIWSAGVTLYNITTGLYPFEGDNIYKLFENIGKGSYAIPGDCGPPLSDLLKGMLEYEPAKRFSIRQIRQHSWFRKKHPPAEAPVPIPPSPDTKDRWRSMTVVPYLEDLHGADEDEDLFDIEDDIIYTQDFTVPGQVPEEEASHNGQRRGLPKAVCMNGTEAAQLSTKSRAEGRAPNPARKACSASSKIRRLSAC", "sequence (Q7RTN6 whole entry partner)": "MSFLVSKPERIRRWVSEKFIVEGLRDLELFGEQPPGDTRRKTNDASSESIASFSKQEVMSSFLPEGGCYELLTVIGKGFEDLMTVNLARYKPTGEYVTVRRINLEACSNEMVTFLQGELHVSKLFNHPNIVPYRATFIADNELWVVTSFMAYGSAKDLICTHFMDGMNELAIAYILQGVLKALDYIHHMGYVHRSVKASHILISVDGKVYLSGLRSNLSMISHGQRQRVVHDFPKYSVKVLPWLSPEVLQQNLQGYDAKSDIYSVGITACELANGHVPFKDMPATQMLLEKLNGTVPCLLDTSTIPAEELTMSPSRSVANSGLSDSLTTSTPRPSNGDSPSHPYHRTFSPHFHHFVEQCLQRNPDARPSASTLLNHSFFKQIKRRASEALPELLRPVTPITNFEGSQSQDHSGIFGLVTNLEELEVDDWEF", "sequence (Q9Y376 whole entry partner)": "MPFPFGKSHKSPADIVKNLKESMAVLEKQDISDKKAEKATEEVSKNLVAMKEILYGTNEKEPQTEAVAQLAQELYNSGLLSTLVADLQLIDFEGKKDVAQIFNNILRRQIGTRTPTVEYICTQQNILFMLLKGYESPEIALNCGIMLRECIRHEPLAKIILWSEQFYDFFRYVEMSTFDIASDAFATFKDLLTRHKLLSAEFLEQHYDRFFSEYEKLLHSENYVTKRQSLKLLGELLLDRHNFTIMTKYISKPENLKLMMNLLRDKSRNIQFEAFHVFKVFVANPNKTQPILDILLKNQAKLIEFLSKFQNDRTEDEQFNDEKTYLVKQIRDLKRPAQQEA", "summary_of_the_method": "as §1"}, "ITPK1": {"molecular_target": "ITPK1 (Homo sapiens (Human), UniProt Q13572)", "summary_of_the_method": "as §1"}, "TAO1, TAO3": {"system": "TAO1, TAO3", "summary_of_the_method": "as §1"}, "OSR1": {"molecular_target": "OSR1 (Homo sapiens (Human), UniProt O95747)", "sequence (O95747 whole entry)": "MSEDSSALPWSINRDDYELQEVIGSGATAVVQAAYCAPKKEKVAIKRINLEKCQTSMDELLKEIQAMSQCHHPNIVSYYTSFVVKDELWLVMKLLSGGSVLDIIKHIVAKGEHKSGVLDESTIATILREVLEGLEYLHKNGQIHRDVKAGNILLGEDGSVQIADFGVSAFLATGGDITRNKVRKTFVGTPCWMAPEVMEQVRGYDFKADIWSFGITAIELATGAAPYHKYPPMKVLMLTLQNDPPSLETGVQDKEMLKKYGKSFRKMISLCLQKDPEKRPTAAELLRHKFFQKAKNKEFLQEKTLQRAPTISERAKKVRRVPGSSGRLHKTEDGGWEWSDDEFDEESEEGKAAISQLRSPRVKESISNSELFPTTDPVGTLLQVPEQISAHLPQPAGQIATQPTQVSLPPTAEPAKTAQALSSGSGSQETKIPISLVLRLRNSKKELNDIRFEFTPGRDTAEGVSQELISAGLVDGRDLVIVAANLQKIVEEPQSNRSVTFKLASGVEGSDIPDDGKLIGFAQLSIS", "summary_of_the_method": "as §1"}, "FES": {"molecular_target": "FES (Homo sapiens (Human), UniProt P07332)", "summary_of_the_method": "as §1"}, "MST1": {"molecular_target": "MST1 (Homo sapiens (Human), UniProt Q13043)", "summary_of_the_method": "as §1"}, "PAN3": {"molecular_target": "PAN3 (Homo sapiens (Human), UniProt Q58A45)", "summary_of_the_method": "as §1"}, "JNK1, JNK2, JNK3": {"system": "JNK1, JNK2, JNK3", "summary_of_the_method": "as §1"}},
  "note": "Where “and” joins values, the source holds several entries; their conditions need not be identical. Identical values can stand only once.",
  "data": [
    {"smiles": "C=CC(=O)N1CCCCC(Nc2nccc(Nc3ncc(C(=O)Nc4c(C)cccc4C)s3)n2)C1", "note": "(stereo not drawn) [Example I-7]", "values": [
      {"measurement": "% change of MS signal compared to control sample", "setting": "MSK1, MSK2 domain1", "result": "−40.4", "unit": "%"},
      {"measurement": "% change of MS signal compared to control sample", "setting": "Wnk1, Wnk2", "result": "−8.6", "unit": "%"},
      {"measurement": "% change of MS signal compared to control sample", "setting": "CDK4", "result": 16.7, "unit": "%"},
      {"measurement": "% change of MS signal compared to control sample", "setting": "PKD1, PKD2", "result": "−8.3", "unit": "%"},
      {"measurement": "% change of MS signal compared to control sample", "setting": "MAP3K1", "result": 7.9, "unit": "%"},
      {"measurement": "% change of MS signal compared to control sample", "setting": "PI4KA, PI4KAP2", "result": "−17.4", "unit": "%"},
      {"measurement": "% change of MS signal compared to control sample", "setting": "SRC", "result": ">90", "unit": "%"},
      {"measurement": "% change of MS signal compared to control sample", "setting": "MSK2 domain1", "result": "−45.3", "unit": "%"},
      {"measurement": "% change of MS signal compared to control sample", "setting": "ULK1", "result": 19.3, "unit": "%"},
      {"measurement": "% change of MS signal compared to control sample", "setting": "AKT1", "result": "−16.4", "unit": "%"},
      {"measurement": "% change of MS signal compared to control sample", "setting": "Wnk1, Wnk2, Wnk3", "result": 10.4, "unit": "%"},
      {"measurement": "% change of MS signal compared to control sample", "setting": "CaMK4", "result": "−24.9", "unit": "%"},
      {"measurement": "% change of MS signal compared to control sample", "setting": "MST4", "result": 11.6, "unit": "%"},
      {"measurement": "% change of MS signal compared to control sample", "setting": "MAP3K15, MAP3K5, MAP3K6", "result": 4.0, "unit": "%"},
      {"measurement": "% change of MS signal compared to control sample", "setting": "PIK3C2B", "result": 39.9, "unit": "%"},
      {"measurement": "% change of MS signal compared to control sample", "setting": "ACK", "result": "80.7% and 88.5%"},
      {"measurement": "% change of MS signal compared to control sample", "setting": "IKKe, TBK1", "result": "−10.7", "unit": "%"},
      {"measurement": "% change of MS signal compared to control sample", "setting": "MASTL", "result": "−10.9% and −13.8%"},
      {"measurement": "% change of MS signal compared to control sample", "setting": "SNRK", "result": "40.7% and 58.7%"},
      {"measurement": "% change of MS signal compared to control sample", "setting": "Erk1", "result": "−23.1", "unit": "%"},
      {"measurement": "% change of MS signal compared to control sample", "setting": "MAP3K5", "result": "−9.3", "unit": "%"},
      {"measurement": "% change of MS signal compared to control sample", "setting": "MLKL", "result": "−6.3", "unit": "%"},
      {"measurement": "% change of MS signal compared to control sample", "setting": "ILK", "result": "17.1% and 28.2%"},
      {"measurement": "% change of MS signal compared to control sample", "setting": "TAO2", "result": "−18.0", "unit": "%"},
      {"measurement": "% change of MS signal compared to control sample", "setting": "p38d, p38g", "result": 1.7, "unit": "%"},
      {"measurement": "% change of MS signal compared to control sample", "setting": "[1]", "result": 7.4, "unit": "%"},
      {"measurement": "% change of MS signal compared to control sample", "setting": "ROCK1", "result": 6.6, "unit": "%"},
      {"measurement": "% change of MS signal compared to control sample", "setting": "JAK1", "result": 7.5, "unit": "%"},
      {"measurement": "% change of MS signal compared to control sample", "setting": "NEK2", "result": 8.5, "unit": "%"},
      {"measurement": "% change of MS signal compared to control sample", "setting": "[2]", "result": 6.2, "unit": "%"},
      {"measurement": "% change of MS signal compared to control sample", "setting": "RSKL1", "result": 29.7, "unit": "%"},
      {"measurement": "% change of MS signal compared to control sample", "setting": "PKN1", "result": 4.2, "unit": "%"},
      {"measurement": "% change of MS signal compared to control sample", "setting": "PIK3CD", "result": "−19.1", "unit": "%"},
      {"measurement": "% change of MS signal compared to control sample", "setting": "CDK11, CDK8", "result": "−3.5", "unit": "%"},
      {"measurement": "% change of MS signal compared to control sample", "setting": "LKB1", "result": 1.2, "unit": "%"},
      {"measurement": "% change of MS signal compared to control sample", "setting": "ITPK1", "result": "−17.5", "unit": "%"},
      {"measurement": "% change of MS signal compared to control sample", "setting": "TAO1, TAO3", "result": "−1.8", "unit": "%"},
      {"measurement": "% change of MS signal compared to control sample", "setting": "OSR1", "result": 22.0, "unit": "%"},
      {"measurement": "% change of MS signal compared to control sample", "setting": "FES", "result": "−20.9", "unit": "%"},
      {"measurement": "% change of MS signal compared to control sample", "setting": "MST1", "result": 3.0, "unit": "%"},
      {"measurement": "% change of MS signal compared to control sample", "setting": "PAN3", "result": "−0.2", "unit": "%"},
      {"measurement": "% change of MS signal compared to control sample", "setting": "JNK1, JNK2, JNK3", "result": "−4.8", "unit": "%"}
    ]}
  ]
}
